From patent publication US20110171663A1, “MICROTRENCH AND TUMOUR PROLIFERATION ASSAY” (University College Cardiff Consultants Ltd, priority 2008, published 2011)

Test system: U-2 OS (ATCC HTB-96) human osteosarcoma cell line
Test: Timelapse imaging determination of sequential intermitotic times (IMT1, IMT2) in cell lineages
Assay type: cell-based
Conditions: U-2 OS lineages from progenitors exposed to 10 μM topotecan for 1 h
Protocol: Human osteosarcoma cell line (U-2 OS (ATCC HTB-96)23) derived from a person were used. The cells were maintained at 37° C. and 5% CO2 using standard tissue culture techniques. Media used was McCoys 5A modified (Sigma) supplemented with 2 mM glutamine, 100 units/ml penicillin, 100 μg/ml streptomycin and 10% fetal calf serum. The cells were seeded onto tissue culture plastic, PDMS layer with and without PDMS microtrench arrays and placed in a six-well multi-well dish (10^4 cells per ml) and left to establish for 24 hours. Post-24 hours incubation the culture dish was then immediately placed onto a timelapse imaging instrument designed to capture transmission phase images from multi-well plates. An Axiovert 100 microscope (Carl Zeiss, Welwyn Garden City, UK) was fitted with an incubator for 37° C./5% CO2 maintenance (Solent Scientific, Portsmouth, UK), and an ORCA-ER CCD camera (Hamamatsu, Reading, UK). All images were collected with a x10 (PH1) apochromat objective lens providing a full view of each microtrench format. Sequences were captured sampling at 15 min, and for three fields per treatment regime (using AQM, Kinetic Imaging, Nottingham, UK). MetaMorph software (Molecular Devices, California) was used to view the stacked image in sequence as for each experiment the images were stacked and saved as *.stk format. […]

CC[C@@]1(O)C(=O)OCc2c1cc1n(c2=O)Cc2cc3c(CN(C)C)c(O)ccc3nc2-1 [topotecan]
IMT2 (av ± sd) (time between the division generating daughters and the division generating granddaughters): 22.9 ± 5.5 | IMT1 (av ± sd) (time between the division generating the mother cell and the division generating two daughters): 24 ± 4.4
